Measurements taken from PubChem BioAssay (NCI).
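Five concentrations, 48 hours, 96-well plates. TGI denotes the concentration required for complete inhibition of growth.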 *1 amine or outer side, *2 acyl side, *3 side chain or, on linkers, in order; H or OH if unused. Where a SMILES comes first, the peptide text is derived from it. Bridges are numbered along the chain shown (N, C = ends). Roman numbers before positions name the chains, in order. [ ]: non-standard residue; d: D form. Actinocin(9to1) = Cc1c2oc3c(C)ccc(C(=O)[*:1])c3nc-2c(C(=O)[*:2])c(N)c1=O; X48 = O=C1CC(C(=O)[*:2])N([*:1])C1; NMeV = CN[CH](C(=O)O)C(C)C; Sar = CNCC(=O)O

Tests used:
Assay in all cases: NCI anticancer screen, dose series, 48 h
HCC-2998 colon = test system: HCC-2998 colon
RXF 393 renal = test system: RXF 393 renal
SNB-75 CNS = test system: SNB-75 CNS
EKVX NSCLC = test system: EKVX NSCLC
RPMI-8226 leukemia = test system: RPMI-8226 leukemia
SF-295 CNS = test system: SF-295 CNS
U251 CNS = test system: U251 CNS
SK-MEL-5 melanoma = test system: SK-MEL-5 melanoma
CCRF-CEM leukemia = test system: CCRF-CEM leukemia
HOP-62 NSCLC = test system: HOP-62 NSCLC
HCT-116 colon = test system: HCT-116 colon
OVCAR-5 ovarian = test system: OVCAR-5 ovarian
NCI-H460 lung = test system: NCI-H460 lung
786-0 renal = test system: 786-0 renal
NCI-H226 lung = test system: NCI-H226 lung
OVCAR-8 ovarian = test system: OVCAR-8 ovarian
ACHN renal = test system: ACHN renal
SK-OV-3 ovarian = test system: SK-OV-3 ovarian
MDA-MB-435 = test system: MDA-MB-435

## O=C(O)C(Cc1c[nH]c2ccccc12)N=Cc1nc(-c2ccccc2)oc1O (centres undefined)
HCC-2998 colon
  TGI: > 100 µM
RXF 393 renal
  TGI: > 100 µM
SNB-75 CNS
  TGI: > 100 µM
EKVX NSCLC
  TGI: > 100 µM
RPMI-8226 leukemia
  TGI: > 100 µM
SF-295 CNS
  TGI: > 100 µM
U251 CNS
  TGI: > 100 µM
SK-MEL-5 melanoma
  TGI: > 100 µM
CCRF-CEM leukemia
  TGI: > 100 µM
HOP-62 NSCLC
  TGI: > 100 µM
HCT-116 colon
  TGI: > 100 µM
OVCAR-5 ovarian
  TGI: > 100 µM
NCI-H460 lung
  TGI: > 100 µM
786-0 renal
  TGI: > 100 µM
NCI-H226 lung
  TGI: > 100 µM
OVCAR-8 ovarian
  TGI: > 100 µM
ACHN renal
  TGI: > 100 µM
SK-OV-3 ovarian
  TGI: > 100 µM

## Cc1c2oc3c(C)ccc(C(=O)NC4C(=O)NC(C(C)C)C(=O)N5CC(=O)CC5C(=O)N(C)CC(=O)N(C)C(C(C)C)C(=O)OC4C)c3nc-2c(C(=O)NC2C(=O)NC(C(C)C)C(=O)N3CC(=O)CC3C(=O)N(C)CC(=O)N(C)C(C(C)C)C(=O)OC2C)c(N)c1=O (centres undefined) (I: TV[X48][Sar][NMeV] / II: TV[X48][Sar][NMeV]; ester I:1-I:C, II:1-II:C; linker I:N-II:N via Actinocin(9to1); configuration not given here)
HCC-2998 colon
  TGI: > 1 µM
RXF 393 renal
  TGI: > 1 µM
EKVX NSCLC
  TGI: > 1 µM
RPMI-8226 leukemia
  TGI: > 1 µM
SF-295 CNS
  TGI: > 1 µM
U251 CNS
  TGI: > 1 µM
SK-MEL-5 melanoma
  TGI: > 1 µM
CCRF-CEM leukemia
  TGI: > 1 µM
HOP-62 NSCLC
  TGI: > 1 µM
HCT-116 colon
  TGI: > 1 µM
OVCAR-5 ovarian
  TGI: > 1 µM
NCI-H460 lung
  TGI: > 1 µM
786-0 renal
  TGI: > 1 µM
NCI-H226 lung
  TGI: > 1 µM
OVCAR-8 ovarian
  TGI: > 1 µM
MDA-MB-435
  TGI: > 1 µM
ACHN renal
  TGI: > 1 µM
SK-OV-3 ovarian
  TGI: > 1 µM

## CCCN1CN(C(C(=O)N[C@@H]2C(=O)N3C2SC(C)(C)C3C(=O)O)c2ccccc2)CSC1=S (some centres undefined)
SNB-75 CNS
  TGI: > 100 µM
EKVX NSCLC
  TGI: > 100 µM
RPMI-8226 leukemia
  TGI: > 100 µM
SF-295 CNS
  TGI: > 100 µM
U251 CNS
  TGI: > 100 µM
SK-MEL-5 melanoma
  TGI: > 100 µM
CCRF-CEM leukemia
  TGI: > 100 µM
HOP-62 NSCLC
  TGI: > 100 µM
HCT-116 colon
  TGI: > 100 µM
OVCAR-5 ovarian
  TGI: > 100 µM
NCI-H460 lung
  TGI: > 100 µM
786-0 renal
  TGI: > 100 µM
OVCAR-8 ovarian
  TGI: > 100 µM
ACHN renal
  TGI: > 100 µM
SK-OV-3 ovarian
  TGI: > 100 µM

## O=C1OCC2(CO1)CC1C=CC2C1 (centres undefined)
HCC-2998 colon
  TGI: > 100 µM
RXF 393 renal
  TGI: > 100 µM
EKVX NSCLC
  TGI: > 100 µM
RPMI-8226 leukemia
  TGI: > 100 µM
SF-295 CNS
  TGI: > 100 µM
U251 CNS
  TGI: > 100 µM
SK-MEL-5 melanoma
  TGI: > 100 µM
HOP-62 NSCLC
  TGI: > 100 µM
HCT-116 colon
  TGI: > 100 µM
OVCAR-5 ovarian
  TGI: > 100 µM
NCI-H460 lung
  TGI: > 100 µM
786-0 renal
  TGI: > 100 µM
NCI-H226 lung
  TGI: > 100 µM
MDA-MB-435
  TGI: > 100 µM
ACHN renal
  TGI: > 100 µM
SK-OV-3 ovarian
  TGI: > 100 µM

## O=C(NCc1ccccc1)c1cc2cc(O)c(O)cc2cn1
HCC-2998 colon
  TGI: > 100 µM
RXF 393 renal
  TGI: 62.3 µM
SNB-75 CNS
  TGI: 84.5 µM
EKVX NSCLC
  TGI: > 100 µM
RPMI-8226 leukemia
  TGI: > 100 µM
SF-295 CNS
  TGI: > 100 µM
U251 CNS
  TGI: > 100 µM
SK-MEL-5 melanoma
  TGI: 50.9 µM
CCRF-CEM leukemia
  TGI: > 100 µM
HOP-62 NSCLC
  TGI: 81.1 µM
HCT-116 colon
  TGI: > 100 µM
OVCAR-5 ovarian
  TGI: 79.6 µM
NCI-H460 lung
  TGI: 91.6 µM
786-0 renal
  TGI: > 100 µM
NCI-H226 lung
  TGI: 89.9 µM
OVCAR-8 ovarian
  TGI: 89.7 µM
ACHN renal
  TGI: > 100 µM
SK-OV-3 ovarian
  TGI: > 100 µM

## CSC(=NCCCCN=C(NS(=O)(=O)c1ccc(Cl)cc1)SC)NS(=O)(=O)c1ccc(Cl)cc1
HCC-2998 colon
  TGI: > 100 µM
EKVX NSCLC
  TGI: > 100 µM
RPMI-8226 leukemia
  TGI: > 100 µM
SF-295 CNS
  TGI: > 100 µM
U251 CNS
  TGI: > 100 µM
CCRF-CEM leukemia
  TGI: > 100 µM
HOP-62 NSCLC
  TGI: > 100 µM
HCT-116 colon
  TGI: > 100 µM
OVCAR-5 ovarian
  TGI: > 100 µM
NCI-H460 lung
  TGI: > 100 µM
786-0 renal
  TGI: > 100 µM
OVCAR-8 ovarian
  TGI: > 100 µM
MDA-MB-435
  TGI: > 100 µM
ACHN renal
  TGI: > 100 µM

## COC(=O)N/N=C(/CCN1CCCC1)CC(c1ccccc1)c1c(O)c2ccccc2oc1=O (centres undefined)
HCC-2998 colon
  TGI: > 100 µM
RXF 393 renal
  TGI: > 100 µM
SNB-75 CNS
  TGI: > 100 µM
EKVX NSCLC
  TGI: > 100 µM
RPMI-8226 leukemia
  TGI: > 100 µM
SF-295 CNS
  TGI: > 100 µM
U251 CNS
  TGI: > 100 µM
SK-MEL-5 melanoma
  TGI: > 100 µM
CCRF-CEM leukemia
  TGI: > 100 µM
HOP-62 NSCLC
  TGI: > 100 µM
HCT-116 colon
  TGI: > 100 µM
OVCAR-5 ovarian
  TGI: > 100 µM
NCI-H460 lung
  TGI: > 100 µM
786-0 renal
  TGI: > 100 µM
NCI-H226 lung
  TGI: > 100 µM
OVCAR-8 ovarian
  TGI: > 100 µM
ACHN renal
  TGI: > 100 µM
SK-OV-3 ovarian
  TGI: > 100 µM

## COc1ccc(NC(=O)C(=O)C2CNC(=O)NC2=O)c(OC)c1 (centres undefined)
HCC-2998 colon
  TGI: > 100 µM
RXF 393 renal
  TGI: > 100 µM
SNB-75 CNS
  TGI: > 100 µM
EKVX NSCLC
  TGI: > 100 µM
RPMI-8226 leukemia
  TGI: > 100 µM
SF-295 CNS
  TGI: > 100 µM
U251 CNS
  TGI: > 100 µM
SK-MEL-5 melanoma
  TGI: > 100 µM
CCRF-CEM leukemia
  TGI: > 100 µM
HOP-62 NSCLC
  TGI: > 100 µM
HCT-116 colon
  TGI: > 100 µM
OVCAR-5 ovarian
  TGI: > 100 µM
NCI-H460 lung
  TGI: > 100 µM
786-0 renal
  TGI: > 100 µM
NCI-H226 lung
  TGI: > 100 µM
OVCAR-8 ovarian
  TGI: > 100 µM
ACHN renal
  TGI: > 100 µM
SK-OV-3 ovarian
  TGI: > 100 µM

## CC(C)OCC(O)COc1ccc2ccc(=O)oc2c1 (centres undefined)
HCC-2998 colon
  TGI: > 100 µM
SNB-75 CNS
  TGI: > 100 µM
EKVX NSCLC
  TGI: > 100 µM
RPMI-8226 leukemia
  TGI: > 100 µM
SF-295 CNS
  TGI: > 100 µM
U251 CNS
  TGI: > 100 µM
SK-MEL-5 melanoma
  TGI: > 100 µM
CCRF-CEM leukemia
  TGI: > 100 µM
HOP-62 NSCLC
  TGI: > 100 µM
HCT-116 colon
  TGI: > 100 µM
OVCAR-5 ovarian
  TGI: > 100 µM
NCI-H460 lung
  TGI: > 100 µM
786-0 renal
  TGI: > 100 µM
OVCAR-8 ovarian
  TGI: > 100 µM
MDA-MB-435
  TGI: > 100 µM
ACHN renal
  TGI: > 100 µM
SK-OV-3 ovarian
  TGI: > 100 µM

## CC1(C)CC[C@]2(C(=O)O)CC[C@]3(C)C(=CC[C@@H]4[C@@]5(C)C[C@H](O)[C@H](O)[C@@](C)(CO)C5=CC[C@]43C)[C@@H]2C1
HCC-2998 colon
  TGI: 92.6 µM
SNB-75 CNS
  TGI: > 100 µM
EKVX NSCLC
  TGI: > 100 µM
RPMI-8226 leukemia
  TGI: > 100 µM
SF-295 CNS
  TGI: > 100 µM
U251 CNS
  TGI: > 100 µM
SK-MEL-5 melanoma
  TGI: > 100 µM
CCRF-CEM leukemia
  TGI: > 100 µM
HOP-62 NSCLC
  TGI: > 100 µM
HCT-116 colon
  TGI: > 100 µM
OVCAR-5 ovarian
  TGI: > 100 µM
NCI-H460 lung
  TGI: 72.2 µM
786-0 renal
  TGI: > 100 µM
OVCAR-8 ovarian
  TGI: > 100 µM
MDA-MB-435
  TGI: > 100 µM
ACHN renal
  TGI: > 100 µM
SK-OV-3 ovarian
  TGI: > 100 µM
